# From US5801165A, “Antiinflammatory, immunosuppressive and antialleric 16, 17-alkylidioxy-steroids” (Rhone-Poulenc Rorer Limited, priority 1992, dated 1998)
# Like-named read-outs stand apart in the source and are kept apart here.
# Legend:
# [1] = tested on: TNF-α release from human peripheral blood monocytes; assay: Inhibition of tumour necrosis factor (TNF-α) release from human peripheral blood monocytes (lipopolysaccharide challenge); format: cell-based; details: Monocyte, 18 hours incubation with steroid, then 10 ng/ml lipopolysaccharide for 4 hours, read-out: IC50 (steroid concentration reducing TNF-α release by 50%)
# Procedure: INHIBITION OF TUMOUR NECROSIS FACTOR (TNF-α) RELEASE FROM HUMAN PERIPHERAL BLOOD MONOCYTES Monocytes are obtained from blood samples taken from normal human donors. The leukocyte population is washed, applied to a discontinuous metrizamide gradient, and fractionated by centrifugation. The monocyte-enriched interface is aspirated, the cells washed and total and differential counts performed to determine the number of monocytes. Cells are allowed to adhere to 96-well plates for 1 to 2 hours, and thereafter incubated (8×10^5 monocytes/well) with the steroid for 18 hours (37° C. in 5% CO2). Cells are challenged with 10 ng/ml lipopolysaccharide for 4 hours and TNF-αis assayed by use of an enzyme-linked immunosorbent assay. TNF-α quantification is performed with goat anti-human TNF-α being used as the coating antibody, rabbit anti-human TNF-α as the second antibody, and goat anti-rabbit IgG horseradish peroxidase as the detection antibody. The IC50 is the steroid concentration reducing TNF-α release by 50%.
# [2] = tested on: antigen-induced mouse ear oedema; assay: Inhibition of antigen-induced mouse ear oedema in-vivo (ovalbumin sensitised mice); details: topical, 18 hours before intradermal antigen challenge; killed 1 hour later
# Procedure: INHIBITION OF MOUSE EAR OEDEMA IN-VIVO (ii) Ovalbumin sensitised mice are challenged with antigen injected into the right ear intradermally under 4% halothane anaesthesia (4% in oxygen, 4 litres/minute for 2 minutes) 18 hours after topical treatment with the steroids [as above in (i)]. The mice are killed 1 hour later, and a 5 mm disc is punched out of each ear, and weighed. The dose reducing the oedema by 50% (ED50) is determined as above.
# [3] = tested on: PMA-induced mouse ear oedema; assay: Inhibition of PMA-induced mouse ear oedema in-vivo; set-up: species or system female mice (CD1 strain); details: epicutaneous, 18 hours before PMA 1.25 μg/ear; killed 4 hours later
# Procedure: INHIBITION OF MOUSE EAR OEDEMA IN-VIVO (i) Steroids are dissolved in acetone and administered epicutaneously to the ventral and dorsal surfaces of the right ear pinna of female mice (CD1 strain, 5 in each group, each weighing about 20 g). 18 Hours later, phorbol myristate acetate (PMA, 1.25 μg/ear) in acetone is applied epicutaneously to the right ear. The mice are killed 4 hours later, and a 5 mm disc is punched out of each ear and weighed. The dose reducing PMA-induced oedema by 50% (ED50) is determined from linear regression.
# [4] = tested on: tyrosine aminotransferase activity, rat liver H4IIE cells; assay: Induction of tyrosine aminotransferase activity in rat liver H4IIE cells; format: cell-based; details: overnight incubation, maximum of dexamethasone as reference, method defines ED50 = 50% of the maximum achievable increase, read-out: IC50 (induction of tyrosine aminotransferase activity)
# Procedure: INDUCTION OF TYROSINE AMINOTRANSFERASE ACTIVITY
# Rat liver H4IIE cells are cultured for 4 days until the cells are confluent. The medium is replaced by fresh medium, containing steroid under test (0-100 nM) which is added to triplicate wells. After overnight incubation as above, the medium is removed and the cells are lysed and the extract is equilibrated at 37° C. with α-ketoglutarate and pyridoxal phosphate in phosphate buffer, pH 7.3, in a final volume of 1 ml. Tyrosine aminotransferase activity is initiated by adding tyrosine and incubating at 37° C. for 10 minutes. The reaction is stopped by adding aqueous sodium hydroxide solution (10M). The ultra-violet absorbance of the para-hydroxybenzaldehyde is measured by a plate reader at 340 nm. The maximal absorbance change achieved with the standard (dexamethasone) is used as a reference. The absorbance change for each concentration of steroid under test is calculated as a fraction of the maximal absorption achievable and plotted against steroid concentration. The ED50 is determined as the concentration causing an increase in tyrosine aminotransferase activity of 50% of the maximum achievable. IC50 =0.3 nM
# [5] = tested on: Sephadex-induced lung oedema in rats; assay: animal or person; format: in vivo, male rats (Sprague-Dawley strain)
# Procedure: INHIBITION OF RAT LUNG OEDEMA IN-VIVO:
# Test compounds are suspended in 1% carboxymethyl-cellulose/0.2% Tween 80 at double the required strength and sonicated to form a suspension. This is administered intra-tracheally (i.t.) to male rats (Sprague-Dawley strain, 6 in each group, each weighing about 350 g) at 0 hours and 24 hours, with the first dose being co-administered with saline and the second with Sephadex G200 [cross-linked dextran] (10 mg/ml) giving a final Sephadex concentration of 5 mg/ml. I.t. dosing is carried out under halothane anaesthesia (4% in oxygen, at 4 litres/minute for 3 minutes). At 48 hours, the rats are killed, final body weight is recorded, and the lungs and thymus are removed and weighed. The doses reducing the Sephadex-induced oedema and the thymus weight by 30% (ED30) are calculated. Airway selectivity is defined as the ratio of thymus involution (ED30) and inhibition of lung oedema (ED30).
# [6] = biological target: T1, Rat thymus glucocorticoid receptor (Rattus norvegicus, UniProt P06536); assay: Steroid binding to the rat thymus glucocorticoid receptor ([3H] dexamethasone displacement)
# T1 construct: The supernatant cytosol is used as the source of receptor; from tissue; host or cells: thymus of male adrenalectomised rats, 100,000 g supernatant cytosol
# T1 sequence (P06536 1-795): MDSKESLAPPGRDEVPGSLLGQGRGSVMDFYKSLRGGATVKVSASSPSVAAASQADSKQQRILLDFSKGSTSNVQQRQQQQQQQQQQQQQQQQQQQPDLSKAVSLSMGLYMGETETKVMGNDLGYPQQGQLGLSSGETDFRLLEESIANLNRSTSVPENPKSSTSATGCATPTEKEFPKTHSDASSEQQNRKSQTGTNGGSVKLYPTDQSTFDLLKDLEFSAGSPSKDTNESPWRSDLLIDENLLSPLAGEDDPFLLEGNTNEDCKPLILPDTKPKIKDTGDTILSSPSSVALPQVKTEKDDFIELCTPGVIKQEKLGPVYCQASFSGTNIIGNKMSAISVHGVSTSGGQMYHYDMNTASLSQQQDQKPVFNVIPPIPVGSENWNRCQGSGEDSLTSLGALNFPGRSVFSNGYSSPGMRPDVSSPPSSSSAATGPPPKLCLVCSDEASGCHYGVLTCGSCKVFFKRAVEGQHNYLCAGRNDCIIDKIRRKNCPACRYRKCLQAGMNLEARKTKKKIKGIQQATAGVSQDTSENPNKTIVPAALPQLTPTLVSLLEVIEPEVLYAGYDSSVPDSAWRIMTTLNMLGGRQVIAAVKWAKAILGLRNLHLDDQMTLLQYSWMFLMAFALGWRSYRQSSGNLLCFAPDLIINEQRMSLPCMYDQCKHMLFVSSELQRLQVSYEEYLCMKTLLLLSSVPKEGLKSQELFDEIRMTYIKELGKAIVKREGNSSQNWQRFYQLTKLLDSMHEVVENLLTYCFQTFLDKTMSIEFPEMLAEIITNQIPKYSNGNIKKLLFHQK
# Text: GLUCOCORTICOID AGONIST ACTIVITY
# STEROID BINDING TO THE RAT THYMUS GLUCOCORTICOID RECEPTOR
# Thymi of male adrenalectomised rats are removed and homogenised in 3-(N-morpholino)propanesulphonic acid dithiothreitol buffer, and centrifuged at 100,000 g. The supernatant cytosol is used as the source of receptor. […] Bound [^3 H] dexamethasone is separated from free dexamethasone by a dextran coated charcoal technique and is quantified by liquid scintillation counting.
# [7] = 4 nM [3H] dexamethasone, 24 hours at 4° C., rat thymus cytosol, read-out: IC50 (concentration reducing [3H] dexamethasone binding by 50%)
compound,measurement,setting,value
CCC[C@@H]1O[C@@H]2C[C@H]3[C@@H]4C[C@H](F)C5=CC(=O)CC[C@]5(C)[C@@]4(F)[C@@H](O)C[C@]3(C)[C@]2(SC)O1,IC50,[1],0.25 nM
same,Inhibition of antigen-induced mouse ear oedema: ED50,[2],0.026 μg/ear
same,Inhibition of PMA-induced mouse ear oedema: ED5O,[3],0.0082 μg/ear
same,ED50 (induction of tyrosine aminotransferase activity),[4],0.3 nM
same,ED30,"[5]; Rattus norvegicus, inhaled or nasal, i.t. at 0 and 24 hours, rats killed at 48 hours, dose reducing Sephadex-induced oedema by 30%",3 µg/kg
same,Thymus involution: ED30,"[5]; rat, in vivo, 2880 min",2200 µg/kg
same,Airway selectivity (ratio of thymus involution ED30 and inhibition of lung oedema ED30),"[5]; ratio ED30 thymus involution / ED30 lung oedema, i.t., rat",733
"CCC[C@@H]1O[C@@H]2C[C@H]3[C@@H]4C[C@H](F)C5CC(=O)CC[C@]5(C)[C@@]4(F)[C@@H](O)C[C@]3(C)[C@]2(SC)O1 (stereo partly drawn) [(20R)-16α,17α-butylidenedioxy-6α,9α-difluoro-11β-hydroxy-17β-(methylthio)androstan-3-one]",IC50,[6]; [7],2.6 nM
"CCC[C@@H]1O[C@@H]2C[C@H]3[C@@H]4CC(=O)C5=CC(=O)C=C[C@]5(C)[C@@]4(F)[C@@H](O)C[C@]3(C)[C@]2(SC)O1 [(20R)-16α,17α-butylidenedioxy-9α-fluoro-11β-hydroxy-17β-(methylthio)androsta-1,4-diene-3,6-dione]",IC50,[6]; [7],2.4 nM
"CCCC1O[C@@H]2C[C@H]3[C@@H]4CCC5=CC(=O)C=C[C@]5(C)[C@@]4(F)[C@@H](O)C[C@]3(C)[C@]2(Sc2ccccn2)O1 (stereo partly drawn) [(20R,S)-16α,17α-Butylidenedioxy-9α-fluoro-11β-hydroxy-17β-(2-pyridylthio)androsta-1,4-dien-3-one]",IC50,[6],11.3 nM
"CCCC1O[C@@H]2C[C@H]3[C@@H]4CCC5=CC(=O)C=C[C@]5(C)[C@@]4(F)[C@@H](O)C[C@]3(C)[C@]2(SC(C)C)O1 (stereo partly drawn) [(20R,S)-16α,17α-Butylidenedioxy-9α-fluoro-11β-hydroxy-17β-(isopropylthio)androsta-1,4-dien-3-one]",IC50,[6]; [7],5.5 nM
"CCCC1O[C@@H]2C[C@H]3[C@@H]4CCC5=CC(=O)C=C[C@]5(C)[C@@]4(F)[C@@H](O)C[C@]3(C)[C@]2(SCC)O1 (stereo partly drawn) [(20R,S)-16α,17α-Butylidenedioxy-17β-ethylthio-9α-fluoro-11β-hydroxyandrosta-1,4-dien-3-one]",IC50,[6]; [7],4.1 nM
"CCC[C@H]1O[C@@H]2C[C@H]3[C@@H]4C[C@H](F)C5=CC(=O)C=C[C@]5(C)[C@@]4(F)[C@@H](O)C[C@]3(C)[C@]2(SCF)O1 [(20S)-6α,9α-difluoro-11β-hydroxy-16α,17α-butylidene-fluoromethylthioandrosta-1,4-dien-3-one]",IC50,"[6]; read-out: IC50 (concentration reducing [3H] dexamethasone binding by 50%), 4 nM [3H] dexamethasone, 24 hours at 4° C., rat thymus cytosol",2.5 nM
"CCC[C@H]1O[C@@H]2C[C@H]3[C@@H]4C[C@H](F)C5=CC(=O)CC[C@]5(C)[C@@]4(F)[C@@H](O)C[C@]3(C)[C@]2(SC)O1 [(20S)-16α,17α-Butylidenedioxy-6α,9α-difluoro-11β-hydroxy-17β-(methylthio)androst-4-ene-3-one]",IC50,[6]; [7],2.9 nM
"CCCC1O[C@@H]2C[C@H]3[C@@H]4CC(=O)C5=CC(=O)CC[C@]5(C)[C@@]4(F)[C@@H](O)C[C@]3(C)[C@]2(SC)O1 (stereo partly drawn) [(20S)-16α,17α-butylidenedioxy-6α,9α-fluoro-11β-hydroxy-(methylthio)androst-4-en-3,6-dione]",IC50,[6]; [7],3.4 nM
